{
  "source": "patent US7750039B2",
  "about": "“Indoles are cannabinoid receptor ligands” (priority 2004, dated 2010)",
  "origin": "cited, not measured here",
  "key": {"[1]": {"test_system": "animal models of pain", "conditions": "acute thermal pain, persistent pain, inflammatory pain, neuropathic pain"}, "[2]": {"test_system": "CB1 receptor-mediated CNS side effects", "conditions": "at fully efficacious doses"}, "[3]": {"test_system": "rodent models of pain", "conditions": "neuropathic, incisional, chronic and acute inflammatory pain"}, "[4]": {"test_system": "rat formalin model of persistent pain"}, "[5]": {"test_system": "microglial", "conditions": "in vitro; blocked by SR144528"}, "[6]": {"test_system": "apolipoprotein E knockout mice", "conditions": "low doses, inhibited by SR144528"}, "[7]": {"test_system": "CB2 receptor knockout mice"}, "[8]": {"test_system": "CB1 receptor knockout mice"}, "[9]": {"test_system": "ovariectomy-induced bone loss in mice", "conditions": "model for post-menopausal osteoporosis"}, "[10]": {"test_system": "osteoclast"}},
  "data": [
    {"compound": "CN1CCCCC1Cn1cc(C(=O)c2cc([N+](=O)[O-])ccc2I)c2ccccc21", "note": "(centres unmarked) [AM-1241]", "values": [
      {"measurement": "analgesic efficacy", "setting": "[1]", "result": "robust analgesic efficacy"},
      {"measurement": "CB1 receptor-mediated CNS side effects", "setting": "[2]", "result": "devoid of typical CB1 receptor-mediated CNS side effects"}
    ]},
    {"compound": "COc1ccc2c(c1)c(CCN1CCOCC1)c(C)n2C(=O)c1cccc(Cl)c1Cl", "note": "[GW405833]", "values": [
      {"measurement": "efficacy in pain models", "setting": "[3]", "result": "efficacious"},
      {"measurement": "CB1 receptor-mediated CNS side effects", "setting": "[2]", "result": "devoid of typical CB1 receptor-mediated CNS side effects"}
    ]},
    {"compound": "CCCCCCC(C)(C)c1cc(OC)c([C@@H]2C=C(CO)[C@@H]3C[C@H]2C3(C)C)c(OC)c1", "note": "[HU-308]", "values": [
      {"measurement": "antinociceptive response", "setting": "[4]", "result": "elicits an antinociceptive response"}
    ]},
    {"compound": "CCCC(C)(C)c1ccc2c(c1)OC(C)(C)[C@@H]1CC=C(C)C[C@@H]21", "note": "[JWH-133]", "values": [
      {"measurement": "β-amyloid-induced microglial activation and neurotoxicity", "setting": "[5]", "result": "abrogated"}
    ]},
    {"compound": "(−)-Δ^9-Tetrahydrocannabinol [Δ^9-THC]", "values": [
      {"measurement": "progression of atherosclerotic lesions", "setting": "[6]", "result": "slowed the progression of atherosclerotic lesions"},
      {"measurement": "immunosuppressive effects", "setting": "[7]", "result": "absent"},
      {"measurement": "analgesic efficacy", "setting": "[8]", "result": "retains some analgesic efficacy"}
    ]},
    {"compound": "SR144528", "values": [
      {"measurement": "ovariectomy-induced bone loss", "setting": "[9]", "result": "reverse ovariectomy-induced bone loss"},
      {"measurement": "osteoclast activity", "setting": "[10]", "result": "inhibit osteoclast activity"}
    ]}
  ]
}
